{"source": "PubChem BioAssay AID588639", "about": "(Sanford-Burnham Center for Chemical Genomics, 2011)", "note": "Where “and” joins values, the source holds several entries; their conditions need not be identical. Equal entries are not always repeated. Calls of active or inactive are those of the source. No rule for the calls is given here."}
{"molecular_target": "Alkaline phosphatase, tissue-nonspecific isozyme (Homo sapiens) (UniProt P05186)", "sequence (P05186 whole entry, looked up)": "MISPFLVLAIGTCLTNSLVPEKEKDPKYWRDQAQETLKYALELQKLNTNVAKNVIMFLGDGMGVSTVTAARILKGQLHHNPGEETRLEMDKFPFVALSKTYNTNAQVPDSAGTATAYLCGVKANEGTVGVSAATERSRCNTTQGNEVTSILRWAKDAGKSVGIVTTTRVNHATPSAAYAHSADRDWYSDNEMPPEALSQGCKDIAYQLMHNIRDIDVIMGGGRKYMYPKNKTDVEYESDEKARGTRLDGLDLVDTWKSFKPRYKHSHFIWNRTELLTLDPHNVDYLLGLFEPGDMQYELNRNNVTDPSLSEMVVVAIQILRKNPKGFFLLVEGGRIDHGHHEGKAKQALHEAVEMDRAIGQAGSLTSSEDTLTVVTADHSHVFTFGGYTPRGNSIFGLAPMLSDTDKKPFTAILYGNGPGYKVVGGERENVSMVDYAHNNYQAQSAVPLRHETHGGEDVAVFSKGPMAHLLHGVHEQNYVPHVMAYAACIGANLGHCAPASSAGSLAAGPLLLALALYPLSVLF", "assay": "inhibition of tissue-nonspecific alkaline phosphatase – biochemical, set 2, selectivity assay for mouse IAP inhibitor project, SAR follow-up (AID 588639)", "conditions": "purified human TNAP enzyme activity, counter-screen for mouse IAP"}
{"molecule": "CCc1ccc(NC(=O)CCNS(=O)(=O)c2ccc3c(c2)oc(=O)n3C)cc1", "IC50": "> 100 µM (inactive)"}
{"molecule": "O=C(CCNS(=O)(=O)c1ccc2[nH]c(=O)oc2c1)NCc1ccc(Cl)cc1", "IC50": "> 100 µM (inactive)"}
{"molecule": "O=C(CCNS(=O)(=O)c1ccc2[nH]c(=O)oc2c1)NCc1cccc(F)c1", "IC50": "> 100 µM (inactive)"}
{"molecule": "O=C(CNS(=O)(=O)c1ccc2[nH]c(=O)oc2c1)NCCc1ccc2c(c1)OCO2", "IC50": "> 100 µM (inactive)"}
{"molecule": "COc1ccc(OC)c(NC(=O)C2CCCN(S(=O)(=O)c3ccc4c(c3)oc(=O)n4C)C2)c1", "note": "(stereo unspecified)", "IC50": "> 100 µM (inactive)"}
{"molecule": "COc1ccc(CCNC(=O)CCCNS(=O)(=O)c2ccc3[nH]c(=O)oc3c2)cc1", "IC50": "> 100 µM (inactive)"}
{"molecule": "CCOc1cc(C(=O)N/N=C/c2c(F)cccc2Cl)cc(OCC)c1OCC", "IC50": "> 100 µM (inactive)"}
{"molecule": "COc1cccc(CNC(=O)CCNS(=O)(=O)c2ccc3[nH]c(=O)oc3c2)c1", "IC50": "> 100 µM (inactive)"}
{"molecule": "O=C(CCNS(=O)(=O)c1ccc2[nH]c(=O)oc2c1)NCc1ccccc1", "IC50": "> 100 µM (inactive)"}
{"molecule": "Cc1ccc(C)c(NS(=O)(=O)c2ccc3[nH]c(=O)oc3c2)c1", "IC50": "> 100 µM (inactive)"}
{"molecule": "COc1ccccc1CNC(=O)CCCNS(=O)(=O)c1ccc2[nH]c(=O)oc2c1", "IC50": "> 100 µM (inactive)"}
{"molecule": "O=C(CCNS(=O)(=O)c1ccc2ccccc2c1)NCCc1ccc2c(c1)OCO2", "IC50": "> 100 µM (inactive)"}
{"molecule": "CC(C)c1ccc(NC(=O)CCNS(=O)(=O)c2ccc3c(c2)oc(=O)n3C)cc1", "IC50": "> 100 µM (inactive)"}
{"molecule": "CC(C)(C)c1ccc(/C=N/NC(=O)c2cc(O)c(O)c(O)c2)cc1", "IC50": "> 100 µM (inactive)"}
{"molecule": "COc1ccc(NS(=O)(=O)c2ccc3[nH]c(=O)oc3c2)cc1OC", "IC50": "> 100 µM (inactive)"}
{"molecule": "CCOc1cc(C(=O)N/N=C/c2ccccc2F)cc(OCC)c1OCC", "IC50": "> 100 µM (inactive)"}
{"molecule": "Cc1ccc(NC(=O)CCNS(=O)(=O)c2ccc3[nH]c(=O)oc3c2)cc1C", "IC50": "> 100 µM (inactive)"}
{"molecule": "N#Cc1ccc(NC(=O)CNS(=O)(=O)c2ccc3[nH]c(=O)oc3c2)cc1", "IC50": "> 100 µM (inactive) and 81.4 µM"}
{"molecule": "COc1ccccc1CNC(=O)CCNS(=O)(=O)c1ccc2[nH]c(=O)oc2c1", "IC50": "> 100 µM (inactive)"}
{"molecule": "CN(C)c1ccc(CNC(=O)C2CCCN(S(=O)(=O)c3ccc4[nH]c(=O)oc4c3)C2)cc1", "note": "(stereo unspecified)", "IC50": "> 100 µM (inactive)"}
{"molecule": "O=C(CCNS(=O)(=O)c1ccc2[nH]c(=O)oc2c1)NCc1ccccc1Cl", "IC50": "> 100 µM (inactive)"}
{"molecule": "O=C(N/N=C/c1c(F)cccc1Cl)c1cc(O)c(O)c(O)c1", "IC50": "> 100 µM (inactive)"}
{"molecule": "Cc1ccc(C)c(CNC(=O)C2CCCN(S(=O)(=O)c3ccc4[nH]c(=O)oc4c3)C2)c1", "note": "(stereo unspecified)", "IC50": "> 100 µM (inactive)"}
{"molecule": "Cc1ccccc1CNC(=O)CCCNS(=O)(=O)c1ccc2[nH]c(=O)oc2c1", "IC50": "> 100 µM (inactive)"}
{"molecule": "O=C(N/N=C/c1ccc(F)cc1F)c1ccc(O)cc1", "IC50": "> 100 µM (inactive)"}
{"molecule": "O=C(NCc1ccc2c(c1)OCO2)C1CCCN(S(=O)(=O)c2ccc3[nH]c(=O)oc3c2)C1", "note": "(stereo unspecified)", "IC50": "> 100 µM (inactive)"}
{"molecule": "COc1ccc(CNC(=O)CNS(=O)(=O)c2ccc3[nH]c(=O)oc3c2)c(OC)c1", "IC50": "> 100 µM (inactive)"}
{"molecule": "O=C(CCNS(=O)(=O)c1ccc2[nH]c(=O)oc2c1)NCc1ccc2c(c1)OCO2", "IC50": "> 100 µM (inactive)"}
{"molecule": "Cc1ccc(C)c(NC(=O)CCNS(=O)(=O)c2ccc3ccccc3c2)c1", "IC50": "> 100 µM (inactive)"}
{"molecule": "COc1cccc(CNS(=O)(=O)c2ccc3[nH]c(=O)oc3c2)c1", "IC50": "> 100 µM (inactive)"}
{"molecule": "COc1cc(/C=N/NC(=O)c2cc(O)c(O)c(O)c2)ccc1O", "IC50": "> 100 µM (inactive)"}
{"molecule": "O=C(N/N=C/c1c(F)cccc1Cl)c1ccc(O)cc1", "IC50": "> 100 µM (inactive)"}
{"molecule": "O=C(N/N=C/c1ccccc1F)c1ccc(O)cc1", "IC50": "> 100 µM (inactive)"}
{"molecule": "N#Cc1cccc(CNC(=O)CCNS(=O)(=O)c2ccc3[nH]c(=O)oc3c2)c1", "IC50": "> 100 µM (inactive)"}
{"molecule": "O=C(CCS(=O)(=O)Nc1ccc2[nH]c(=O)oc2c1)NCc1cccc(Cl)c1", "IC50": "> 100 µM (inactive)"}
{"molecule": "N#Cc1cccc(NC(=O)CNS(=O)(=O)c2ccc3[nH]c(=O)oc3c2)c1", "IC50": "> 100 µM (inactive)"}
{"molecule": "CC(C)c1ccc(NC(=O)C2CCCN(S(=O)(=O)c3ccc4c(c3)oc(=O)n4C)C2)cc1", "note": "(stereo unspecified)", "IC50": "> 100 µM (inactive)"}
{"molecule": "Cc1ccc(C)c(NC(=O)CCNS(=O)(=O)c2ccc3c(c2)CCC3)c1", "IC50": "> 100 µM (inactive)"}
{"molecule": "O=C(N/N=C/c1c(F)cccc1Cl)c1ccc(O)cc1O", "IC50": "> 100 µM (inactive)"}
{"molecule": "N#Cc1cccc(NS(=O)(=O)c2ccc3[nH]c(=O)oc3c2)c1", "IC50": "> 100 µM (inactive)"}
{"molecule": "O=C(CCS(=O)(=O)Nc1ccc2[nH]c(=O)oc2c1)NCc1cccc(F)c1", "IC50": "> 100 µM (inactive)"}
